A short description of this assay: HCV replicon assay (luciferase reporter, ET cell line). The class given is cell-based. As to conditions: Hepatitis C virus, HCV replicon luciferase activity in ET cells. In short, it runs like this: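 ET cells carry a stable luciferase-ubiquitin-neo/NS3-5B subgenomic HCV replicon with adaptive mutations. Compounds (0.1 nM to […], 0.5% DMSO) were added 24 h after plating, and luciferase was read 48-72 h later. EC50 came from 10-point 2-fold dilutions fitted to a Hill equation; TC50 was measured in parallel by WST-1.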
`O=C(NCc1cccc(F)c1)NCc1cn2cc(-c3ccoc3)cc(C(F)(F)F)c2n1` [Compound 398, 1-(3-Fluoro-benzyl)-3-(6-furan-3-yl-8-trifluoromethyl-imidazo[1,2-a]pyridine-2-ylmethyl)-urea] registered an inhibition at 10 µM of 86.9%.

Molecule `O=C(NCc1cn2cc(-c3ccoc3)cc(C(F)(F)F)c2n1)NCc1ccccc1F` [Compound 399, 1-(2-Fluoro-benzyl)-3-(6-furan-3-yl-8-trifluoromethyl-imidazo[1,2-a]pyridine-2-ylmethyl)-urea] gave an inhibition at 10 µM of 37.7%.

In the case of `O=C(NCc1ccccc1F)c1nc2c(C(F)(F)F)cc(-c3ccoc3)cn2c1Cl` [Compound 402, 3-Chloro-6-furan-3-yl-8-trifluoromethyl-imidazo[1,2-a]pyridine-2-carboxylic Acid-2-fluoro-benzylamide], testing at 10 µM gave an inhibition of 94.9%.

Molecule `O=C(NCc1cccc(F)c1)c1nc2c(C(F)(F)F)cc(-c3ccoc3)cn2c1Cl` [Compound 403] displayed an inhibition at 10 µM of 88.9%.

For `O=C(NCc1ccc(F)cc1)c1nc2c(C(F)(F)F)cc(-c3ccoc3)cn2c1Cl` [Compound 404], the inhibition at 10 µM stood at 83.9%.

In the case of `O=C(NCCc1ccccc1F)c1nc2c(C(F)(F)F)cc(-c3ccoc3)cn2c1Cl` [Compound 405, 3-Chloro-6-furan-3-yl-8-trifluoromethyl-imidazo[1,2-a]-pyridine-2-carboxylic acid [2-(2-fluoro-phenyl)-ethyl]-amide], the inhibition at 10 µM worked out at 90%.

`O=C(NCCc1cccc(F)c1)c1nc2c(C(F)(F)F)cc(-c3ccoc3)cn2c1Cl` [Compound 406, 3-Chloro-6-furan-3-yl-8-trifluoromethyl-imidazo[1,2-a]-pyridine-2-carboxylic acid [2-(3-fluoro-phenyl)-ethyl]-amide]: the inhibition at 10 µM is 82.5%.

On to `O=C(NCCc1ccc(F)cc1)c1nc2c(C(F)(F)F)cc(-c3ccoc3)cn2c1Cl` [Compound 407, 3-Chloro-6-furan-3-yl-8-trifluoromethyl-imidazo[1,2-a]-pyridine-2-carboxylic acid [2-(4-fluoro-phenyl)-ethyl]-amide], for which the inhibition at 10 µM is 88%.

Regarding `O=C(CNC(=O)c1nc2c(C(F)(F)F)cc(-c3ccoc3)cn2c1Cl)c1cccc(F)c1` [Compound 409, 3-Chloro-6-furan-3-yl-8-trifluoromethyl-imidazo[1,2-a]pyridine-2-carboxylic Acid[2-(3-fluoro-phenyl)-2-oxo-ethyl]-amide], the inhibition at 10 µM stood at 46.6%.

As for `O=C(NC(c1ccccc1)c1ccccn1)c1nc2c(C(F)(F)F)cc(-c3ccoc3)cn2c1Cl` (stereo not drawn) [Compound 410, 3-Chloro-6-furan-3-yl-8-trifluoromethyl-imidazo[1,2-a]pyridine-2-carboxylic Acid (phenyl-pyridin-2-yl-methyl)-amide], the inhibition at 10 µM is 99.1%.

The molecule `C[C@@H](NC(=O)c1nc2c(C(F)(F)F)cc(-c3ccoc3)cn2c1Cl)c1ccccc1` [Compound 411, 3-Chloro-6-furan-3-yl-8-trifluoromethyl-imidazo[1,2-a]pyridine-2-carboxylic Acid (1-phenyl-ethyl)-amide] came in with an inhibition at 10 µM of 74.8%.

Consider `C[C@H](NC(=O)c1nc2c(C(F)(F)F)cc(-c3ccoc3)cn2c1Cl)c1ccccc1` [Compound 412, 3-Chloro-6-furan-3-yl-8-trifluoromethyl-imidazo[1,2-a]pyridine-2-carboxylic Acid (1-phenyl-ethyl)-amide], for which the inhibition at 10 µM was found to be 85%.

In turn, `C[C@H](CNC(=O)c1nc2c(C(F)(F)F)cc(-c3ccoc3)cn2c1Cl)c1ccccc1` [Compound 414, 3-Chloro-6-furan-3-yl-8-trifluoromethyl-imidazo[1,2-a]pyridine-2-carboxylic Acid (2-phenyl-propyl)-amide] returned an inhibition at 10 µM of 76.3%.

As for `O=C(NCc1nccs1)c1nc2c(C(F)(F)F)cc(-c3ccoc3)cn2c1Cl` [Compound 415, 3-Chloro-3-furan-3-yl-8-trifluomethyl-imidazo[1,2-a]-pyridine-2-carboxylic Acid (thiazol-2-ylmethyl)-amide], the inhibition at 10 µM was determined as 92.6%.

In turn, `N#CC1CCN(C(=O)c2nc3c(C(F)(F)F)cc(-c4ccoc4)cn3c2Cl)C1` (stereo not drawn) [Compound 416, 1-(3-Chloro-6-furan-3-yl-8-trifluoromethyl-imidazo[1,2-a]pyridine-2-carbonyl)-pyrrolidine-3-carbonitrile] had an inhibition at 10 µM of 58%.

`O=C(c1nc2c(C(F)(F)F)cc(-c3ccoc3)cn2c1Cl)N1CCC(c2ncon2)C1` (stereo not drawn) [Compound 417, (3-Chloro-6-furan-3-yl-8-trifluoromethyl-imidazo[1,2-a]pyridine-2-yl)-(3-[1,2,4]oxadiazol-3-yl-pyrrolidin-1-yl)-methanone]: at 10 µM the inhibition was 96.5%.

Consider `O=C(c1nc2c(C(F)(F)F)cc(-c3ccoc3)cn2c1Cl)N1CCC(c2ccc(F)c(F)c2)C1` (stereo not drawn) [Compound 420, (3-Chloro-6-furan-3-yl-8-trifluoromethyl-imidazo[1,2-a]pyridine-2-yl)-[3-(3,4-difluoro-phenyl)-pyrrolidin-1-yl]-methanone], for which the inhibition at 10 µM was 93.6%.

With `O=C(c1nc2c(C(F)(F)F)cc(-c3ccoc3)cn2c1Cl)N1CC=C(c2cccs2)C1` [Compound 422, (3-Chloro-6-furan-3-yl-8-trifluoromethyl-imidazo[1,2-a]pyridin-2-yl)-(3-thiophen-2-yl-2,5-dihydro-pyrrol-1-yl)-methanone], testing at 10 µM gave an inhibition of 99.8%.

Regarding `O=C(c1nc2c(C(F)(F)F)cc(-c3ccoc3)cn2c1Cl)N1CCC(c2cccs2)C1` (stereo not drawn) [Compound 423, (3-Chloro-6-furan-3-yl-8-trifluoromethyl-imidazo[1,2-a]pyridin-2-yl)-(3-thiophen-2-yl-pyrrolidin-1-yl)-methanone], at 10 µM the inhibition was 99.8%.

`O=C(c1nc2c(C(F)(F)F)cc(-c3ccoc3)cn2c1Cl)N1CC=C(c2ccccc2F)C1` [Compound 424, (3-Chloro-6-furan-3-yl-8-trifluoromethyl-imidazo[1,2-a]pyridin-2-yl)-[3-(2-fluoro-phenyl)-2,5-dihydro-pyrrol-1-yl]-methanone] gave an inhibition at 10 µM of 99.7%.

The molecule `O=C(c1nc2c(C(F)(F)F)cc(-c3ccoc3)cn2c1Cl)N1CC=C(c2ccsc2)C1` [Compound 425, (3-Chloro-6-furan-3-yl-8-trifluoromethyl-imidazo[1,2-a]pyridin-2-yl)-(3-thiophen-3-yl-2,5-dihydro-pyrrol-1-yl)-methanone] came in with an inhibition at 10 µM of 99.3%.

With `O=C(c1nc2c(C(F)(F)F)cc(-c3ccoc3)cn2c1Cl)N1CC=C(c2cccc(F)c2)C1` [Compound 426, (3-Chloro-6-furan-3-yl-8-trifluoromethyl-imidazo[1,2-a]pyridin-2-yl)-[3-(3-fluoro-phenyl)-2,5-dihydro-pyrrol-1-yl]-methanone], the inhibition at 10 µM is 98.2%.

For the molecule `O=C(c1nc2c(C(F)(F)F)cc(-c3ccoc3)cn2c1Cl)N1CC=C(c2ccc(F)cc2)C1` [Compound 427, (3-Chloro-6-furan-3-yl-8-trifluoromethyl-imidazo[1,2-a]pyridin-2-yl)-[3-(4-fluoro-phenyl)-2,5-dihydro-pyrrol-1-yl]-methanone], 10 µM produced 99.1% inhibition.

`O=C(c1nc2c(C(F)(F)F)cc(-c3ccoc3)cn2c1Cl)N1CC=C(c2nccs2)C1` [Compound 428, (3-Chloro-6-furan-3-yl-8-trifluoromethyl-imidazo[1,2-a]pyridin-2-yl)-(3-thiazol-2-yl-2,5-dihydro-pyrrol-1-yl)-methanone] registered an inhibition at 10 µM of 99.9%.

Values taken from patent US20120121540A1 (priority 2007, published 2012).
